The values that follow come from ChEMBL document CHEMBL3817806, “Novel benzimidazol-2-ylidene carbene precursors and their silver(I) complexes: Potential antimicrobial agents” (2016).

Values after ≈ are worked out from the molar mass of the structure shown.

By MIC is commonly meant the least concentration at which growth counts as inhibited.

Common to all, as to format: functional
For one assay, the system named is Candida albicans. Description: Antifungal activity against Candida albicans ATCC 10231 after 48 hrs by agar dilution method. The note with it: ATCC 10231, 48 h. A general note: In agar dilution the substance is mixed into plates at graded concentrations.
Another assay concerns Candida tropicalis. The experiment in a line: Antifungal activity against Candida tropicalis ATCC 13803 after 48 hrs by agar dilution method. The note with it: ATCC 13803, 48 h.
Another assay concerns Pseudomonas aeruginosa. The experiment in a line: Antibacterial activity against Pseudomonas aeruginosa ATCC 27853 after 16 to 20 hrs by agar dilution method.
In another assay the test system is Staphylococcus aureus. The experiment in a line: Antibacterial activity against Staphylococcus aureus ATCC 29213 after 16 to 20 hrs by agar dilution method.
Another assay deals with Escherichia coli. Description: Antibacterial activity against Escherichia coli ATCC 25922 after 16 to 20 hrs by agar dilution method.
For a further assay, the system named is Enterococcus faecalis. Description: Antibacterial activity against Enterococcus faecalis ATCC 29212 after 16 to 20 hrs by agar dilution method.

On to `OC(Cn1cncn1)(Cn1cncn1)c1ccc(F)cc1F` [FLUCONAZOLE], for which the minimum inhibitory concentration (MIC) against Candida albicans and against Candida tropicalis was 3.12 µg/mL (≈ 10.2 µM) each time.
Consider `CCOc1ccccc1OCCn1c[n+](Cc2ccc(C(C)C)cc2)c2ccccc21.[Br-]`, for which the MIC with Candida albicans was 400 µg/mL; in the assay with Candida tropicalis, 400 µg/mL; with Pseudomonas aeruginosa it was 800 µg/mL; against Staphylococcus aureus, 800 µg/mL; against Escherichia coli, 800 µg/mL; in the assay on Enterococcus faecalis it was 800 µg/mL.
For `CC1(C)S[C@@H]2[C@H](NC(=O)[C@H](N)c3ccccc3)C(=O)N2[C@H]1C(=O)O` [AMPICILLIN], the figures for the MIC in the assay on Staphylococcus aureus, in the assay with Escherichia coli and in the assay with Enterococcus faecalis were 3.12 µg/mL (≈ 8.93 µM), 3.12 µg/mL (≈ 8.93 µM) and 1.56 µg/mL (≈ 4.46 µM), respectively.
For `O=C(O)c1cn(C2CC2)c2cc(N3CCNCC3)c(F)cc2c1=O` [CIPROFLOXACIN], the figures for the MIC in the assay on Pseudomonas aeruginosa, against Staphylococcus aureus and against Enterococcus faecalis were 3.12 µg/mL (≈ 9.42 µM), 0.39 µg/mL (≈ 1.18 µM) and 0.78 µg/mL (≈ 2.35 µM), respectively.
In the case of `CCOc1ccccc1OCCn1c[n+](CCOc2ccccc2OCC)c2ccccc21.[Br-]`, the MIC in the assay with Candida albicans was determined as 200 µg/mL; against Candida tropicalis, 200 µg/mL; against Pseudomonas aeruginosa, 400 µg/mL; in the assay with Staphylococcus aureus, 200 µg/mL; against Escherichia coli it was 200 µg/mL; in the assay with Enterococcus faecalis it was 400 µg/mL.
`CCOc1ccccc1OCCn1c[n+](Cc2c(C)cc(C)cc2C)c2ccccc21.[Br-]`: the minimal inhibitory concentration (MIC) is 50 µg/mL in the assay on Candida albicans; 50 µg/mL in the assay on Candida tropicalis; 800 µg/mL against Pseudomonas aeruginosa; 50 µg/mL against Staphylococcus aureus; 50 µg/mL in the assay on Escherichia coli; 800 µg/mL with Enterococcus faecalis.
Turning to `CCOc1ccccc1OCCn1c[n+](Cc2ccc(C(C)(C)C)cc2)c2ccccc21.[Br-]`, the minimum inhibitory concentration (MIC) came to 50 µg/mL in the assay on Candida albicans; 50 µg/mL against Candida tropicalis; 400 µg/mL against Pseudomonas aeruginosa; 50 µg/mL in the assay on Staphylococcus aureus; 50 µg/mL with Escherichia coli; 200 µg/mL against Enterococcus faecalis.
With `CCOc1ccccc1OCCn1c[n+](Cc2cccc(OC)c2)c2ccccc21.[Cl-]`, the MIC in the assay on Candida albicans, against Candida tropicalis, against Pseudomonas aeruginosa, with Staphylococcus aureus, in the assay with Escherichia coli and against Enterococcus faecalis was 800 µg/mL throughout.
Turning to `CCOc1ccccc1OCCn1c[n+](CCOC)c2ccccc21.[Br-]`, the MIC against Candida albicans, with Candida tropicalis, in the assay with Pseudomonas aeruginosa, against Staphylococcus aureus, against Escherichia coli and with Enterococcus faecalis was 800 µg/mL in each case.
Turning to `CCCC[n+]1cn(CCOc2ccccc2OCC)c2ccccc21.[Br-]`, the MIC is 25 µg/mL against Candida albicans; 25 µg/mL in the assay on Candida tropicalis; 50 µg/mL against Pseudomonas aeruginosa; 50 µg/mL with Staphylococcus aureus; 50 µg/mL in the assay with Escherichia coli; 50 µg/mL against Enterococcus faecalis.
With `CCOc1ccccc1OCCn1c[n+](Cc2c(C)c(C)cc(C)c2C)c2ccccc21.[Br-]`, the minimal inhibitory concentration (MIC) with Candida albicans was found to be 400 µg/mL; in the assay on Candida tropicalis, 400 µg/mL; in the assay on Pseudomonas aeruginosa it was 800 µg/mL; in the assay on Staphylococcus aureus, 400 µg/mL; against Escherichia coli it was 400 µg/mL; in the assay on Enterococcus faecalis, 800 µg/mL.
